Reference: PMC8592027, “Structure-Guided Design of D-Galactal Derivatives with High Affinity and Selectivity for the Galectin-8 N-Terminal Domain” (ACS Medicinal Chemistry Letters, 2021)
Entries after “also recorded” stand apart in the source; their conditions may differ. Like-named read-outs stand apart in the source and are kept apart here.

How the values were obtained:
[1] = target: T1, galectin-8N (galectin-8 N-terminal domain) (Homo sapiens, UniProt O00214); assay: Competitive fluorescence polarization assay, galectin-8N; format: binding; conditions: for Kd: mean ± SEM of n = 4–8
T1 construct: selective ligand for the galectin-8 N-terminal domain (galectin-8N); made in house
T1 sequence (O00214 19-152 limits assumed): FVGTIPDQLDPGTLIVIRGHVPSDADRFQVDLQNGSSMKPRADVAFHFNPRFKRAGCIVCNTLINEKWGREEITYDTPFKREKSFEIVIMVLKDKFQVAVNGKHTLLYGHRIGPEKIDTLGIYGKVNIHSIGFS
Method: All synthesized D-galactal derivatives had higher binding affinities for galectin-8N than D-galactal 3.
(§1) 1. Competitive fluorescence polarization experiments:
(§2) Human galectins -1, -3, -4N, -4C, -7, -8N, -9N, and -9C were expressed and purified as previously described 30,41. Fluorescence polarisation experiments were performed using the PHERAstar FS plat e reader (software version 2.10 R3), and the fluorescence anisotropy of fluorescein tagged probes was measured by excitation at 485 nm and emission at 520 nm. The specific conditions for galectins -1, -3, -4N, -4C, -7, -8N, -9N, and -9C were kept as report ed30,41,42. The synthesised compounds were dissolved in pure DMSO at 20 mM concentration and diluted in PBS to 3-6 different concentrations, and each concentration was tested in duplicate. The highest inhibitor concentrations tested were 1.5 mM. The

K562 cancer cell line = assay: MTS metabolic activity (cytotoxicity) assay, K562; format: cell-based; conditions: concentrations 1 to 100 μM, 24 hours
Method: (§3) We have investigated the cytotoxicity of the compounds 1, 6a, and 6c via a (3-(4,5-dimethylthiazol-2-yl)-5-(3-carboxymethoxyphenyl)-2-(4-sulfophenyl)-2H-tetrazolium) (MTS) assay in K562 and MDA-MB-231 cancer cell lines to establish the direct antitumor activity of compounds, as well as human peripheral blood mononuclear cells (PBMCs), to evaluate their safety.
(§4) Metabolic activity assay:
(§5) The metabolic activities of the cell lines were determined using the CellTiter 96 Aqueous One Solution cell proliferation assay (MTS Reagents, Promega, Madison, WI, USA), according to the manufacturer instructions. Briefly, the cells were treated with the selected compounds in 0.1% dimethyl sulfoxide (DMSO; vehicle), 0.1% DMSO (control vehicle), or medium (control) and seeded at a cell density of 5,500 cells/well (MDA-MB-231 cells) or 4 x 10^4 cells/well (K562 cells), 7000 cells/well (HepG2 cells) or 1 x 10^5 cells/well (human PBMCs) in duplicates (MDA-MB-231, K562, and […]) or triplicates for HepG2 cells (100 µL), in sterile 96-well plates. For the MDA-MB-231 and HepG2, the cells were left to adhere overnight before adding the compounds. The plates were then incubated for 24 hours (48 hours for HepG2), after which 15 µL of MTS reagent was added to each well. After 30-90 minute of incubation, the absorbance was measured at 492 nm using a microplate reader (Synergy HTX Multi-Mode; BioTek Instruments, Inc., VT, USA). […]
(§6) Bead Array Human inflammatory cytokine Kit (content: IL-1, IL-6, IL-8, IL-10, IL-12p). The flow cytometric analyses were performed on an Attune NxT flow cytometer (Thermo Fisher Scientific, […]
(§7) Data are represented as means ± standard deviation (SD) from three representative independent experiments.
(§8) All experiments were performed at least twice, with average values expressed as means ± SD. All data were analyzed with the statistical software GraphPad Prism 8.0 (GraphPad Software, Inc., CA, USA). by one-way ANOVA followed with Dunnett’s multiple compar ison test. Differences were considered non-significant for p > 0.05, and significant (*) for p < 0.05. […]

[2] = tested on: MDA-MB-231 cancer cell line; assay: MTS metabolic activity (cytotoxicity) assay, MDA-MB-231; format: cell-based, human; conditions: concentrations 1 to 100 μM, 24 hours
Method: as §3, §4, §5, §6, §7, §8

[3] = tested on: human peripheral blood mononuclear cells (PBMCs); assay: MTS metabolic activity (cytotoxicity) assay, PBMCs; format: cell-based; conditions: concentrations up to 100 μM, 24 hours
Method: as §3, §4, §5, §6, §7, §8

[4] = tested on: IL-6 secretion from MDA-MB-231 cells; assay: Multiplexed cytokine assay, IL-6 secretion; format: cell-based, human; conditions: 24 hours, vs untreated cells
Method: (§9) Figure 5 Effect of compounds 1 and 6a on the secretion of IL-6 and IL-8 expressed in pg/mL. The effects were measured after incubating the cells with the compounds at 10 and 100 μM. Compounds 1 and 6a reduce the secretion of IL-6 and IL-8 in a dose-dependent manner at 100 and 10 μM. Results shown are means ± SEM of three independent experiments. ns, not significant (p > 0.05); *p < 0.05 versus untreated controls.
(§10) Metabolic activity assay: […]
(§11) Briefly, the cells were treated with the selected compounds in 0.1% dimethyl sulfoxide (DMSO; vehicle), 0.1% DMSO (control vehicle), or medium (control) and seeded at a cell density of 5,500 cells/well (MDA-MB-231 cells) or 4 x 10^4 cells/well (K562 cells), 7000 cells/well (HepG2 cells) or 1 x 10^5 cells/well (human PBMCs) in duplicates (MDA-MB-231, K562, and […]) or triplicates for HepG2 cells (100 µL), in sterile 96-well plates. For the MDA-MB-231 and HepG2, the cells were left to adhere overnight before adding the compounds. The plates were then incubated for 24 hours (48 hours for HepG2), after which 15 µL of MTS reagent was added to each well. […]
(§12) HTX Multi-Mode; BioTek Instruments, Inc., VT, USA).
(§13) Multiplexed cytokine assay:
(§14) MDA-MB-231 cells were seeded in 96-well flat-bottom plates at a density of 2 x 10^4 cells/well in 100 µL of medium and allowed to adhere for 24 hours at 37 °C and 5% CO2. The medium was then replaced by a fresh medium containing the desired concentrations of compounds 1 and 6a, after which the cells were cells incubated again for 24 hours at 37 °C and 5% CO2. Cell-free supernatants were collected and stored at – 80 °C before the analysis. The cytokines secretion was assessed by BD Cytometric Bead Array Human inflammatory cytokine Kit (content: IL-1, IL-6, IL-8, IL-10, IL-12p). The flow cytometric analyses were performed on an Attune NxT flow cytometer (Thermo Fisher Scientific, Waltham, MA, USA). Standard curves were generated using recombinant cytokines provided in the kit, and the data were analyzed with FlowJo software (Tree Star, Inc., Ashland, OR). The results are expressed in pg/mL. Data are represented as means ± standard deviation (SD) from three representative independent experiments.
(§15) All experiments were performed at least twice, with average values expressed as means ± SD. All data were analyzed with the statistical software GraphPad Prism 8.0 (GraphPad Software, Inc., CA, USA). by one-way ANOVA followed with Dunnett’s multiple compar ison test. Differences were considered non-significant for p > 0.05, and significant (*) for p < 0.05.

[5] = tested on: IL-8 secretion from MDA-MB-231 cells; assay: Multiplexed cytokine assay, IL-8 secretion; format: cell-based, human; conditions: 24 hours, vs untreated cells
Method: as §9, §10, §11, §12, §13, §14, §15

[6] = target: T1, galectin-8N (galectin-8 N-terminal domain); conditions: cited from earlier work
galectin-1 = target: T2, galectin-1 (Homo sapiens, UniProt P09382); assay: Competitive fluorescence polarization assay, galectin-1; format: binding; conditions: mean ± SEM of n = 4–8
T2 construct: made in house
Method: as §1, §2

galectin-3 = target: T3, galectin-3 (Homo sapiens, UniProt P17931); assay: Competitive fluorescence polarization assay, galectin-3; format: binding; conditions: mean ± SEM of n = 4–8
T3 construct: made in house
Method: as §1, §2

[7] = target: T4, galectin-4N (N-terminal domain) (Homo sapiens, UniProt P56470); assay: Competitive fluorescence polarization assay, galectin-4N; format: binding; conditions: mean ± SEM of n = 4–8
T4 construct: galectins (N = N-terminal domain, C = C-terminal domain); made in house
T4 sequence (P56470 19-150 limits assumed): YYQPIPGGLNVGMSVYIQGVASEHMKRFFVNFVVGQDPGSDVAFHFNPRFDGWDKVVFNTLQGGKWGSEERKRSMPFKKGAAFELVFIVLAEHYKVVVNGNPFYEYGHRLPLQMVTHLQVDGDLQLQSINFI
Method: as §1, §2

[8] = target: T5, galectin-4C (C-terminal domain) (Homo sapiens, UniProt P56470); assay: Competitive fluorescence polarization assay, galectin-4C; format: binding; conditions: mean ± SEM of n = 4–8
T5 construct: galectins (N = N-terminal domain, C = C-terminal domain); made in house
T5 sequence (P56470 194-323 limits assumed): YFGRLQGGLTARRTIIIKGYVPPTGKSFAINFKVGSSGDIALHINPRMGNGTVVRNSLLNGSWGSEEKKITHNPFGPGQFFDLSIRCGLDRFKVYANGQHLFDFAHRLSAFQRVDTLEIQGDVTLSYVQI
Method: as §1, §2

[9] = target: T6, galectin-8C (C-terminal domain) (Homo sapiens, UniProt O00214); assay: Competitive fluorescence polarization assay, galectin-8C; format: binding; conditions: mean ± SEM of n = 4–8
T6 construct: galectins (N = N-terminal domain, C = C-terminal domain)
T6 sequence (O00214 187-317 limits assumed): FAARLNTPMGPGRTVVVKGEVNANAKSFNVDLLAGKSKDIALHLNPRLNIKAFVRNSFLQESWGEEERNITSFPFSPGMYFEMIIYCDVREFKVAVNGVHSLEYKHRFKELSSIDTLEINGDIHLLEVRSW

[10] = target: T7, galectin-9N (N-terminal domain) (Homo sapiens, UniProt O00182); assay: Competitive fluorescence polarization assay, galectin-9N; format: binding; conditions: mean ± SEM of n = 4–8
T7 construct: galectins (N = N-terminal domain, C = C-terminal domain); made in house
Method: as §1, §2

[11] = target: T8, galectin-9C (C-terminal domain) (Homo sapiens, UniProt O00182); assay: Competitive fluorescence polarization assay, galectin-9C; format: binding; conditions: mean ± SEM of n = 4–8
T8 construct: galectins (N = N-terminal domain, C = C-terminal domain); made in house
Method: as §1, §2

galectin-2 = target: T9, galectin-2 (Homo sapiens, UniProt P05162); assay: Competitive fluorescence polarization assay, galectin-2; format: binding; conditions: mean ± SEM of n = 4–8
T9 sequence (P05162 1-132): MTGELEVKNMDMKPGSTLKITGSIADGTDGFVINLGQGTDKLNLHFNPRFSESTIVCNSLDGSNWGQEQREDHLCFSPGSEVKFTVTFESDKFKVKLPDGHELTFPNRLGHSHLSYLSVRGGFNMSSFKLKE

galectin-7 = target: T10, galectin-7 (Homo sapiens, UniProt P47929); assay: Competitive fluorescence polarization assay, galectin-7; format: binding; conditions: mean ± SEM of n = 4–8
T10 construct: made in house
Method: as §1, §2

T2 sequence (P09382 whole entry): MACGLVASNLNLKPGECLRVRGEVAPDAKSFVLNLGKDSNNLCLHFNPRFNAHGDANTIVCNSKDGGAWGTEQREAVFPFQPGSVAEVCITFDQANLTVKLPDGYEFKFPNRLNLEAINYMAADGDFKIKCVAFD
T3 sequence (P17931 whole entry): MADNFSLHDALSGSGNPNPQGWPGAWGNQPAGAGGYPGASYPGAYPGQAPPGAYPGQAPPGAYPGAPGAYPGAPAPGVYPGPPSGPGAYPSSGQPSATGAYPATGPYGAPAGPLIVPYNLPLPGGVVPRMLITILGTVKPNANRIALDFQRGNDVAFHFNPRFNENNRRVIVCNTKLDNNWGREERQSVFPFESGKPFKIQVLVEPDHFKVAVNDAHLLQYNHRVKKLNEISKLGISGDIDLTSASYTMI
T7 sequence (O00182 17-148 limits assumed): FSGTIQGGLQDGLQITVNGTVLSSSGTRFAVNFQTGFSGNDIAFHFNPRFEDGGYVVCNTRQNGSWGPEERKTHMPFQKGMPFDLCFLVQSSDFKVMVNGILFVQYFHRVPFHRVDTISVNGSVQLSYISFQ
T8 sequence (O00182 227-355 limits assumed): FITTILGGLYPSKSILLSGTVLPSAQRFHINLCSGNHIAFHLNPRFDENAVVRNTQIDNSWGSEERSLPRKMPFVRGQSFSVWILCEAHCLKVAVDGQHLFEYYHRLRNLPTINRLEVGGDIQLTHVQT
T10 sequence (P47929 whole entry): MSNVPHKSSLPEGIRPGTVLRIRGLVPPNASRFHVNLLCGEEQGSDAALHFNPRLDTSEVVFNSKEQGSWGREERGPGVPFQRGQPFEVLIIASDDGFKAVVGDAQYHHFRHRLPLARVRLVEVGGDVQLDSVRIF

Kd (galectin-1)	Kd (galectin-3)	Kd [7]	Kd [8]	Kd [1]	Kd [9]	Kd [10]	Kd [11]	Kd (galectin-2)	Compound	further results
									Cn1c(CO[C@@H]2[C@@H](O)[C@@H](Sc3ccc(Cl)c(Cl)c3)O[C@H](CO)[C@@H]2O)nc2ccc(C(=O)O)cc21 [compound 1, reference compound]	affinity for galectin-8N relative to that of compound 6a [1]: about 25 fold; cell viability (MTS), K562 (K562 cancer cell line): None of the compounds decreased the viability; cell viability (MTS), MDA-MB-231 [2]: None of the compounds decreased the viability; also recorded: no effect on the viability; direct cytotoxicity (MTS), PBMCs [3]: lack of direct cytotoxicity; reduction in IL-6 secretion ([4]; 10 μM, effect not significant): about 15%; reduction of IL-6 secretion ([4]; 100 μM): about 65%; reduction in IL-8 secretion ([5]; 10 μM, effect not significant): ~20%; reduction of IL-8 secretion ([5]; 100 μM): about 55%
									OC[C@H]1Oc2cc(Cc3ccc(F)cc3)cc3c2[C@@H](OC3)[C@H]1O [compound 2]	selectivity for galectin-8N over galectin-1 [6]: about 2 fold; selectivity for galectin-8N over galectin-3 [6]: 23 fold
1600 ± 140 µM	3300 ± 650 µM	2400 ± 13 µM	5300 µM	1300 ± 72 µM	4100 ± 470 µM	> 1500 µM	4800 µM		OC[C@H]1OC=C[C@@H](O)[C@H]1O [compound 3, D-galactal]	higher affinity for galectin-8N compared to the methyl β-D-galactopyranoside [1]: 5 fold
> 1500 µM	1700 ± 40 µM	1300 ± 12 µM	3700 ± 250 µM	230 ± 16 µM	> 1500 µM	1000 ± 51 µM	> 1500 µM	> 1500 µM	COC(=O)c1ccc2ccc(CO[C@@H]3C=CO[C@H](CO)[C@@H]3O)nc2c1 [compound 8]	
3600 µM	590 ± 78 µM	> 1500 µM	2800 ± 770 µM	48 ± 6 µM	4700 ± 22 µM	1800 ± 160 µM	> 1500 µM	1100 ± 200 µM	O=C(O)c1ccc2ccc(CO[C@@H]3C=CO[C@H](CO)[C@@H]3O)nc2c1 [compound 9]	Kd (galectin-7): > 1500 µM
									methyl β-D-galactomalonyl phenyl ester	Kd [6]: 5.7 µM
